Measured values as given in the supplement of paper PMC10307832.

Legend:
Assay in all cases: relative viability (nuclei count vs DMSO), 5 days (fraction); higher = more cells survive
[1] = compound: CC1=C(N=C(N=C1N)[C@H](CC(=O)N)NC[C@@H](C(=O)N)N)C(=O)N[C@@H]([C@H](C2=CN=CN2)OC3C(C(C(C(O3)CO)O)O)OC4C(C(C(C(O4)CO)O)OC(=O)N)O)C(=O)N[C@H](C)[C@H]([C@H](C)C(=O)N[C@@H]([C@@H](C)O)C(=O)NCCC5=NC(=CS5)C6=NC(=CS6)C(=O)NCCC[S+](C)C)O [Bleomycin] + O=C(c1cc(Cc2n[nH]c(=O)c3ccccc23)ccc1F)N1CCN(C(=O)C2CC2)CC1 [Olaparib] (partner 8 µM); settings: main component drawn
In short: (§1)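 Lung cancer cell lines, seeded in 1536-well plates, were treated the following day by pin tool with a single drug or with five library-drug doses (not always all listed) in √10 steps on top of a fixed anchor-drug dose. Cells were fixed and nuclei stained in one step after 5 days, and nuclei were counted. Relative viability is the nuclei count for treated wells divided by that for vehicle wells, reported as medians of duplicate plates.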

[2] = compound: CC1=C(N=C(N=C1N)[C@H](CC(=O)N)NC[C@@H](C(=O)N)N)C(=O)N[C@@H]([C@H](C2=CN=CN2)OC3C(C(C(C(O3)CO)O)O)OC4C(C(C(C(O4)CO)O)OC(=O)N)O)C(=O)N[C@H](C)[C@H]([C@H](C)C(=O)N[C@@H]([C@@H](C)O)C(=O)NCCC5=NC(=CS5)C6=NC(=CS6)C(=O)NCCC[S+](C)C)O [Bleomycin] + Nc1nc2[nH]cc(CCc3ccc(C(=O)N[C@@H](CCC(=O)O)C(=O)O)cc3)c2c(=O)[nH]1 [Pemetrexed] (partner 0.2 µM); settings: main component drawn
In short: as §1

[3] = compound: COc1cc([C@@H]2c3cc4c(cc3[C@@H](O[C@@H]3O[C@@H]5CO[C@@H](C)O[C@H]5[C@H](O)[C@H]3O)[C@H]3COC(=O)[C@H]23)OCO4)cc(OC)c1O [Etoposide] + O=C(CCCCCCC(=O)Nc1ccccc1)NO [Vorinostat] (partner 1 µM)
In short: as §1

[4] = compound: COc1cc([C@@H]2c3cc4c(cc3[C@@H](O[C@@H]3O[C@@H]5CO[C@@H](C)O[C@H]5[C@H](O)[C@H]3O)[C@H]3COC(=O)[C@H]23)OCO4)cc(OC)c1O [Etoposide] + CS(=O)(=O)N1CCN(Cc2cc3nc(-c4cccc5[nH]ncc45)nc(N4CCOCC4)c3s2)CC1 [Pictilisib] (partner 1 µM)
In short: as §1

Cell Line | relative viability ([1]; first compound 0.01 µM) | relative viability ([1]; first compound 0.03162 µM) | relative viability ([1]; first compound 0.1 µM) | relative viability ([1]; first compound 0.3162 µM) | relative viability ([1]; first compound 1 µM) | relative viability ([2]; first compound 0.01 µM) | relative viability ([2]; first compound 0.03162 µM) | relative viability ([2]; first compound 0.1 µM) | relative viability ([2]; first compound 0.3162 µM) | relative viability ([2]; first compound 1 µM) | relative viability ([3]; first compound 0.01 µM) | relative viability ([3]; first compound 0.03162 µM) | relative viability ([3]; first compound 0.1 µM) | relative viability ([3]; first compound 0.3162 µM) | relative viability ([3]; first compound 1 µM) | relative viability ([4]; first compound 0.01 µM) | relative viability ([4]; first compound 0.03162 µM) | relative viability ([4]; first compound 0.1 µM) | relative viability ([4]; first compound 0.3162 µM) | relative viability ([4]; first compound 1 µM)
HCC-15 | 0.629 | 0.689 | 0.508 | 0.224 | 0.238 | 0.22 | 0.193 | 0.233 | 0.193 | 0.154 | 0.766 | 0.894 | 0.779 | 0.275 | 0.178 | 0.758 | 0.713 | 0.428 | 0.292 | 0.141
HCC-44 | 0.84 | 0.739 | 0.657 | 0.415 | 0.401 | 0.625 | 0.666 | 0.586 | 0.526 | 0.401 | 1.12 | 1.04 | 1.21 | 1.02 | 0.727 | 0.529 | 0.601 | 0.531 | 0.589 | 0.275
HCC-78 | 0.592 | 0.617 | 0.652 | 0.488 | 0.487 | 0.895 | 0.969 | 0.88 | 0.832 | 0.826 | 0.396 | 0.494 | 0.329 | 0.256 | 0.242 | 0.218 | 0.202 | 0.144 | 0.188 | 0.15
HCC-366 | 0.157 | 0.134 | 0.126 | 0.0346 | 0.0334 | 0.169 | 0.207 | 0.178 | 0.0708 | 0.0498 | 0.353 | 0.386 | 0.122 | 0.0606 | 0.0304 | 0.198 | 0.188 | 0.0748 | 0.0491 | 0.0362
